Literature values, collected in patent publication US9314021B2, “Formulations containing insect repellent compounds” (E I DU PONT DE NEMOURS AND COMPANY, priority 2004, dated 2016).

Tested on: ant species Monomorium destructor
Conditions: pure undiluted compound; after 25 seconds of exposure; during feeding

CC1COC(=O)C2C(C)CCC12 (stereo not shown) [dihydronepetalactone]
ants ceased to feed: 50-60%
